Tests used:
rat receptor Mas = target: T1, rat receptor Mas (Rattus norvegicus, UniProt P12526); test: Nitric oxide production in CHO cells transfected with the Mas receptor (DAF-FM fluorescence); assay type: cell-based; details: 10^−7 mol/L, 60 minutes
T1 construct: expressed in transfected cells
T1 sequence (P12526 1-324): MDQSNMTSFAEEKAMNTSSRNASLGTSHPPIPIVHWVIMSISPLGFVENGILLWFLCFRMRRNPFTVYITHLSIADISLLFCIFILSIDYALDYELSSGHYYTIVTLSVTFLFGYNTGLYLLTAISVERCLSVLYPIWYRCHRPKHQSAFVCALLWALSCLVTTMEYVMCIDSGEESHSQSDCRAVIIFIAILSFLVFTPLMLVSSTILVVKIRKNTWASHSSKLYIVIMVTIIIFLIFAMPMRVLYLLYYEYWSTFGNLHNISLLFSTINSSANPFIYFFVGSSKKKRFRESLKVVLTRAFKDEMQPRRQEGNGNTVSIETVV
Experimental: Chinese hamster ovary cells (CHO) were stably transfected with the cDNA of the rat receptor Mas driven by a cytomegalovirus promoter and selected using neomycin. Nitric oxide production was monitored using the indicator NO 4-amino-5-methylamino-2′,7′-difluorofluorescent diacetate.
Confluent CHO cells transfected with the Mas receptor and cultured in 6-well plates were preincubated in 1.5 ml of serum free medium (DMEM) containing DAF-FM (least 5 uM) and supplemented with 0.2% BSA, 0.005% bacitracin, […] phenylmethylsulfonyl fluoride and […] 1, 10-phenanthroline at 37° C. in a humidified incubator in an atmosphere with 5% CO2. After 30 minutes, cells were washed and incubated with arg0-Ang-(1-7) and Ang-(1-7) at 10^−7 mol/L for 60 minutes. Subsequently, the cells were washed twice and the slides were mounted for confocal microscopy for evaluation.
Relative fluorescence measurements were made using a Zeiss LSM 510 laser scanning META confocal microscope excited at 488 nm with an argon-ion laser (objective lens immersion oil, 63×).
Results are presented as mean±SEM. One-way analysis of variance with Bonferroni post-test for multiple comparisons was used to compare the concentration-response curve in CHO cells transfected with the receptor Mas. All statistical analyses were considered significant when p<0.05.

[1] = test system: mesenteric artery rings of SHR; test: Vasorelaxation in mesenteric artery rings of SHR; set-up: species or system rat; details: expressed as percentage of decrease of phenylephrine contraction
Experimental: Rings (2.0 mm) of mesenteric artery (2nd and/or 3rd branches) in spontaneously hypertensive rats (SHR), free from adipose and connective tissue, were maintained in a gasified solution (95% 02 and 5% CO2) of Krebs-Hanseleit to 37° C. After a 15 minute stabilization period, the artery was stretched, gradually, to a resting tension considered optimal with respect to its inner diameter. In each arterial segment, the voltage/diameter was calculated by the internal circumference which corresponds to a transmural pressure of 100 mmHg for a relaxed vessel in situ (IC100) using software specific for standardization resistance arteries. For the experiments, the arteries were maintained with an internal circumference, IC1, calculated using the formula IC1=0.90×IC100, in which the development of strength is maximum, as previously described by Mulvany and Halpern (1977). The effective luminal diameter was determined according to the I1=IC1/π equation. The diameter of the vessels used ranged from 200 to 300 μm.
The arteries were stimulated with a high concentration of potassium chloride (KCl 120 mmol/1), in order to assess their functional integrity. […]
The presence of functional endothelium was assessed by the ability of acetylcholine [ACh] […] The mechanical activity was recorded isometrically using a myograph, and this was connected to a system for data acquisition and a computer. […]

[2] = test system: Human alveolar adenocarcinoma cells (A549); test: Anti-proliferative effect in A549 cells (AlamarBlue cell viability); assay type: cell-based; details: 1×10^−4 to 2×10^−7M, 48 hours
Experimental: Human alveolar adenocarcinoma cells (A549), cultured in DEMEM supplemented with 10% fetal bovine serum and 1% penicillin/streptomycin, were distributed into 96 wells plate at the density of 2×10^4 cells/well. After 48 hours of incubation in an incubator at 37° C., the arg0-angiotensin-(1-7) and angiotensin (1-7) peptides were added to the wells and serially diluted (1×10^−4 to 2×10^−7M) in culture medium free of fetal bovine serum. Wells not plated with cells and wells with cells but stimulated only with culture medium were used as controls. The stimulus, which lasted 48 hours, was followed by the addition of AlamarBlue reagent (Invitrogen), used to detect cell viability.

nitric oxide production (rat receptor Mas): stimulated nitric oxide production
Substance: Asp-Arg-Val-Tyr-Ile-His-Pro [Ang-(1-7)]
Emax of vasorelaxation [1]: 28% | anti-proliferative effect [2]: anti-proliferative effect

— patent US20160122387A1, “Angiotensin Peptide and Pharmaceutical Compositions for Disease Treatment” (UNIVERSIDADE FEDERAL DE MINAS GERAIS - UFMG, priority 2012, published 2016)
